According to PMC10454409, “Hybrids of Sterically Hindered Phenols and Diaryl Ureas: Synthesis, Switch from Antioxidant Activity to ROS Generation and Induction of Apoptosis” (International Journal of Molecular Sciences, 2023):
Where two headings read alike, the source gives them in different places.

Tests used:
[1] = tested on: M-HeLa cells (human cervix epithelioid carcinoma); experiment: MTT cytotoxicity test, M-HeLa; type: cell-based
How it was run: (§1)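 Cells seeded at 5 × 10^3 per well and grown at 37 °C to monolayer, then exposed to compounds for 48 h. Viability by MTT (0.5 mg/mL, serum-free medium, 4 h, 37 °C), formazan dissolved in DMSO, OD 540 nm. IC50 estimated from triplicate experiments.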

[2] = tested on: HuTu 80 cells (human duodenal adenocarcinoma); experiment: MTT cytotoxicity test, HuTu 80; type: cell-based
How it was run: as §1

[3] = tested on: HuTu 80 cells; experiment: Intracellular ROS level, CellROX Deep Red flow cytometry; type: cell-based, human; conditions: 48 h incubation, maximum concentration (IC50)
[4] = DPPH antiradical assay; conditions: DPPH 100 μM
Procedure: Figure 4 Antioxidant potential of the tested compounds. (a) Inhibition of lipid peroxidation (LPO) in rat brain homogenates (2 mg/mL) initiated by Fe(II) ions (concentration of 500 µM) in the tested compounds at a concentration of 100 µM. (b) Concentration dependences of LPO inhibition for the studied compounds in the concentration range from 1 µM to 100 µM. (c) Oxygen Radical Absorbance Capacity (ORAC) of the studied compounds and ORAC values expressed as Trolox equivalent (TE). (d) DPPH antiradical activity of the compounds under study and DPPH values expressed as TE. The concentration of studied compounds and Trolox was 100 µM, the concentration of DPPH was 100 μM, and the concentration of AAPH was […]. Statistical significance was assessed using one-way ANOVA and Dunnett’s multiple comparison tests, where **** p < 0.0001, *** p < 0.001 and ** p < 0.01 vs. control. […]

[5] = tested on: SH-SY5Y cells (neuroblastoma); experiment: MTT cytotoxicity test, SH-SY5Y; type: cell-based; conditions: Homo sapiens, SH-SY5Y; MTT test; 24 h incubation per text, 48 h per method
How it was run: as §1

CCOP(=O)(OCC)C(c1cc(C(C)(C)C)c(O)c(C(C)(C)C)c1)c1ccc(NC(=O)Nc2ccc([N+](=O)[O-])cc2)cc1NC(=O)Nc1ccc([N+](=O)[O-])cc1 (centres unmarked) [17b]
IC50 ([1]; Homo sapiens, M-HeLa, MTT test, 24 h incubation per text, 48 h per method): 24.3 ± 1.9 µM | SI, selectivity index relative to Chang liver, M-HeLa ([1]; M-HeLa vs Chang liver): ~3 | IC50 ([2]; Homo sapiens, HuTu80, read-out: IC50, HuTu 80): < 15 µM | IC50 ([2]; read-out: IC50, HuTu 80): 13.2 µM | Intracellular ROS level [3]: 400.2 ± 5.2% | DPPH antiradical activity ([4]; compound 100 µM): 64.8 ± 0.7% | DPPH value (Trolox equivalent) ([4]; compounds and Trolox 100 µM): 1.27 Trolox equivalent | IC50 [5]: 54.8 ± 2.1 µM
